experiment: recombinant barcode read abundance after kanamycin selection (control-corrected) (log10(CPM+1)); higher = more efficient recombination; sequences stand for … in AGTGCAGAGAAAATCGGCCAGTTTTCTCTGCCTGCAGTCCGCATGCCGT…AGATTTATGCAGCGGACTGCCTTTCTCCCAAAGTGATAAACCGGACAGTATCATGGACCGGTTTTCCCGGTAATCCGTATTTGCAAGGTTGGTTTCACT; site = the 11-nt target
Outline: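 This pooled E. coli screen matched targets with IS621 bridge RNA target-binding loops. Plating was done in duplicate on chloramphenicol/ampicillin LB agar as a control and on chloramphenicol/ampicillin/kanamycin plus 0.1 mM IPTG. Recombination efficiency reflects barcode counts at recombinant junctions as counts per million, averaged and control-corrected. The figures are log10(CPM+1).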
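Note: IS621 recombinase and bridge RNA in Escherichia coli cells.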

Point of comparison: “GGCTATGCTTGGGTTCTAACCTGTTGCCT (site GGCTATGCTAG)”, “recombinant barcode read abundance (log10)” value 0.175. Against it:
- TGAATGACTTGGGTTCTAACCTGTTGCCT (site TGAATGACTAG) — higher, 0.544
- GGAGGTCCTTGGGTTCTAACCTGTTGCTA (site GGAGGTCCTTA) — higher, 2.08
- CTCGGATCTTGGGTTCTAACCTGTTGCTC (site CTCGGATCTCA) — within 0.2 log units, 0.0519
- TAGACTGCTTGGGTTCTAACCTGTTGCCT (site TAGTCTGCTAG) — higher, 0.451
- CCTGGCACTTGGGTTCTAACCTGTTGCAG (site CCTGAGACTCT) — within 0.2 log units, 0
- ACGCATCCTTGGGTTCTAACCTGTTGCCT (site AAGCATCCTAG) — within 0.2 log units, 0.0107
- TGAATGACTTGGGTTCTAACCTGTTGCCT (site TGGATGCCTAG) — within 0.2 log units, 0.0355
- ATGCAAACTTGGGTTCTAACCTGTTGCCT (site ATGCAACCTAG) — within 0.2 log units, 0.0759
- TAGAGGACTTGGGTTCTAACCTGTTGCAG (site TAGAGGACTCT) — higher, 2.23
- GAAACGTCTTGGGTTCTAACCTGTTGCCT (site GACAAGTCTAG) — within 0.2 log units, 0.0765
- ATGCTTGCTTGGGTTCTAACCTGTTGCCA (site TGTGCAACTCA) — within 0.2 log units, 0.299
- TAGCAGACTTGGGTTCTAACCTGTTGCCT (site TAGCAGACTAG) — higher, 1.45
- GCATCTACTTGGGTTCTAACCTGTTGCCT (site GGATCTACTAG) — within 0.2 log units, 0.059
- CATGCTACTTGGGTTCTAACCTGTTGCTC (site CATGCTACTGA) — higher, 0.627
- GGACATTCTTGGGTTCTAACCTGTTGCTT (site GGACATTCTAA) — within 0.2 log units, 0.319
- AGTTGGCCTTGGGTTCTAACCTGTTGCGA (site AGTTGGCCTTC) — higher, 0.45
- CGTCAACCTTGGGTTCTAACCTGTTGCGT (site CGTCAACCTAC) — within 0.2 log units, 0.205
- TATTAGCCTTGGGTTCTAACCTGTTGCCT (site TATTACCCTAG) — within 0.2 log units, 0.283
- GGCTGCACTTGGGTTCTAACCTGTTGCCT (site GGCTGCACTAG) — higher, 1.17
- AATACTACTTGGGTTCTAACCTGTTGCTG (site AGTACTCCTCA) — within 0.2 log units, 0.196
- CGTCCTGCTTGGGTTCTAACCTGTTGCCT (site AGTCCTGCTAG) — within 0.2 log units, 0
- TATAGAACTTGGGTTCTAACCTGTTGCCT (site TATATAACTAG) — within 0.2 log units, 0.015
- GGTCCCGCTTGGGTTCTAACCTGTTGCCA (site GGGCCCGCTTA) — higher, 0.485
- TAGGACGCTTGGGTTCTAACCTGTTGCCT (site TAAGACGCTAG) — higher, 1.76
- GGCACGGCTTGGGTTCTAACCTGTTGCCT (site GGCACAGCTAG) — higher, 0.519
- ACGGCCTCTTGGGTTCTAACCTGTTGCTT (site ACGGCCTCTAA) — higher, 2.63
- AGATAGCCTTGGGTTCTAACCTGTTGCCT (site CGATAGCCTAG) — within 0.2 log units, 0.102
- CACTTACCTTGGGTTCTAACCTGTTGCCT (site CACTTAGCTAG) — within 0.2 log units, 0.00951
- TAAGTGTCTTGGGTTCTAACCTGTTGCCT (site TAAGTGTCTAG) — higher, 2.56
- GAGCGAGCTTGGGTTCTAACCTGTTGCGG (site GAGCGAGCTCG) — within 0.2 log units, 0.196
- TCGCGTCCTTGGGTTCTAACCTGTTGCAG (site TCGCGTCCTCT) — higher, 0.379
- TACATCCCTTGGGTTCTAACCTGTTGCCA (site TACATCCCTGG) — within 0.2 log units, 0.0594
- CCTTCCACTTGGGTTCTAACCTGTTGCCT (site GCTTCCACTAG) — within 0.2 log units, 0.0418
- CTATTGACTTGGGTTCTAACCTGTTGCCT (site CTATGGACTAG) — within 0.2 log units, 0.11
- TCCTGTACTTGGGTTCTAACCTGTTGCAT (site TCCTGTACTAT) — higher, 1.01
- CCTGGCACTTGGGTTCTAACCTGTTGCAG (site CCTGGCACTCT) — higher, 1.96
- CTGTAGGCTTGGGTTCTAACCTGTTGCTA (site CTGTAGGCTTA) — higher, 0.716
- CGGACGTCTTGGGTTCTAACCTGTTGCTG (site CGGGCGTCTAA) — within 0.2 log units, 0.0605
- CTAAATCCTTGGGTTCTAACCTGTTGCAT (site CTAAATCCTAT) — higher, 0.963
- AATTGTCCTTGGGTTCTAACCTGTTGCAT (site AATTGTCCTAT) — within 0.2 log units, 0.249
- GGCCGAACTTGGGTTCTAACCTGTTGCCT (site CGCCGAACTAG) — within 0.2 log units, 0.0639
- CGCCTCTCTTGGGTTCTAACCTGTTGCCT (site CGCCTCCCTAG) — within 0.2 log units, 0.211
- GAGCTAGCTTGGGTTCTAACCTGTTGCGT (site GAGCTAGCTGC) — within 0.2 log units, 0.155
- GACGGATCTTGGGTTCTAACCTGTTGCCT (site GACGGATCTAG) — within 0.2 log units, 0.212
- GTGTTTCCTTGGGTTCTAACCTGTTGCAT (site GTGTCTCCTAT) — within 0.2 log units, 0.081
- AAGGACGCTTGGGTTCTAACCTGTTGCCT (site AAGGCCGCTAG) — within 0.2 log units, 0.241
- AGCATTGCTTGGGTTCTAACCTGTTGCCT (site AGCCTTGCTAG) — higher, 0.629
- CTAGACTCTTGGGTTCTAACCTGTTGCTA (site CTAGACTCTAA) — higher, 0.587
- TACCCTACTTGGGTTCTAACCTGTTGCCT (site GACCCTACTAG) — within 0.2 log units, 0.0371
- ACGCATACTTGGGTTCTAACCTGTTGCCT (site ACGCATACTAG) — within 0.2 log units, 0.0647
- CTCGGAACTTGGGTTCTAACCTGTTGCCT (site CTCGGAGCTAG) — within 0.2 log units, 0.325
- AGTTGTCCTTGGGTTCTAACCTGTTGCCT (site AGTTGTCCTAG) — within 0.2 log units, 0.132
- TACACTACTTGGGTTCTAACCTGTTGCCG (site TACACTACTCG) — within 0.2 log units, 0.177
- ACCGAGTCTTGGGTTCTAACCTGTTGCCT (site AGCGAGTCTAG) — within 0.2 log units, 0.164
- CCGTGGACTTGGGTTCTAACCTGTTGCCT (site CCGTGGCCTAA) — within 0.2 log units, 0.254
- ACTTTAGCTTGGGTTCTAACCTGTTGCTT (site ACTTGAACTAA) — higher, 0.438
- ATGGGCCCTTGGGTTCTAACCTGTTGCTT (site ATGGGCCCTTA) — within 0.2 log units, 0.243
- GTGTCAACTTGGGTTCTAACCTGTTGCCT (site GTGTCACCTAG) — within 0.2 log units, 0.0106
- AATTCGGCTTGGGTTCTAACCTGTTGCCT (site AATTCGGCTAG) — within 0.2 log units, 0.305
- GTATGAGCTTGGGTTCTAACCTGTTGCCA (site TTATAAGCTTG) — within 0.2 log units, 0.0331
- AATAGTGCTTGGGTTCTAACCTGTTGCCT (site AATAGTGCTAG) — within 0.2 log units, 0.203
- GAGCTACCTTGGGTTCTAACCTGTTGCCC (site GAGCTACCTAG) — higher, 1.48
- GACCGTCCTTGGGTTCTAACCTGTTGCGT (site GACCGTCCTAT) — higher, 1.14
- TCACGTCCTTGGGTTCTAACCTGTTGCAT (site TCACGTCCTAA) — within 0.2 log units, 0.0411
- GCCTGGGCTTGGGTTCTAACCTGTTGCCG (site GCCCGGGCTCG) — higher, 0.516
